Results from patent US8741905B2, “Compounds and methods for treating autoimmune diseases” (The Broad Institute, Inc., priority 2010, dated 2014).
pEC50: −log10 of the molar value.

How the values were obtained:
STAT1 [1] = assay: Nuclear STAT1 translocation; assay type: cell-based; settings: FIG. 9
Usp9x [2] = molecular target: T1, Usp9x (Homo sapiens, UniProt Q93008); assay: Usp9x thermal shift assay; assay type: binding; settings: FIG. 14, purified Usp9x, compared with WP1130
T1 construct: made in house
T1 sequence (Q93008 whole entry): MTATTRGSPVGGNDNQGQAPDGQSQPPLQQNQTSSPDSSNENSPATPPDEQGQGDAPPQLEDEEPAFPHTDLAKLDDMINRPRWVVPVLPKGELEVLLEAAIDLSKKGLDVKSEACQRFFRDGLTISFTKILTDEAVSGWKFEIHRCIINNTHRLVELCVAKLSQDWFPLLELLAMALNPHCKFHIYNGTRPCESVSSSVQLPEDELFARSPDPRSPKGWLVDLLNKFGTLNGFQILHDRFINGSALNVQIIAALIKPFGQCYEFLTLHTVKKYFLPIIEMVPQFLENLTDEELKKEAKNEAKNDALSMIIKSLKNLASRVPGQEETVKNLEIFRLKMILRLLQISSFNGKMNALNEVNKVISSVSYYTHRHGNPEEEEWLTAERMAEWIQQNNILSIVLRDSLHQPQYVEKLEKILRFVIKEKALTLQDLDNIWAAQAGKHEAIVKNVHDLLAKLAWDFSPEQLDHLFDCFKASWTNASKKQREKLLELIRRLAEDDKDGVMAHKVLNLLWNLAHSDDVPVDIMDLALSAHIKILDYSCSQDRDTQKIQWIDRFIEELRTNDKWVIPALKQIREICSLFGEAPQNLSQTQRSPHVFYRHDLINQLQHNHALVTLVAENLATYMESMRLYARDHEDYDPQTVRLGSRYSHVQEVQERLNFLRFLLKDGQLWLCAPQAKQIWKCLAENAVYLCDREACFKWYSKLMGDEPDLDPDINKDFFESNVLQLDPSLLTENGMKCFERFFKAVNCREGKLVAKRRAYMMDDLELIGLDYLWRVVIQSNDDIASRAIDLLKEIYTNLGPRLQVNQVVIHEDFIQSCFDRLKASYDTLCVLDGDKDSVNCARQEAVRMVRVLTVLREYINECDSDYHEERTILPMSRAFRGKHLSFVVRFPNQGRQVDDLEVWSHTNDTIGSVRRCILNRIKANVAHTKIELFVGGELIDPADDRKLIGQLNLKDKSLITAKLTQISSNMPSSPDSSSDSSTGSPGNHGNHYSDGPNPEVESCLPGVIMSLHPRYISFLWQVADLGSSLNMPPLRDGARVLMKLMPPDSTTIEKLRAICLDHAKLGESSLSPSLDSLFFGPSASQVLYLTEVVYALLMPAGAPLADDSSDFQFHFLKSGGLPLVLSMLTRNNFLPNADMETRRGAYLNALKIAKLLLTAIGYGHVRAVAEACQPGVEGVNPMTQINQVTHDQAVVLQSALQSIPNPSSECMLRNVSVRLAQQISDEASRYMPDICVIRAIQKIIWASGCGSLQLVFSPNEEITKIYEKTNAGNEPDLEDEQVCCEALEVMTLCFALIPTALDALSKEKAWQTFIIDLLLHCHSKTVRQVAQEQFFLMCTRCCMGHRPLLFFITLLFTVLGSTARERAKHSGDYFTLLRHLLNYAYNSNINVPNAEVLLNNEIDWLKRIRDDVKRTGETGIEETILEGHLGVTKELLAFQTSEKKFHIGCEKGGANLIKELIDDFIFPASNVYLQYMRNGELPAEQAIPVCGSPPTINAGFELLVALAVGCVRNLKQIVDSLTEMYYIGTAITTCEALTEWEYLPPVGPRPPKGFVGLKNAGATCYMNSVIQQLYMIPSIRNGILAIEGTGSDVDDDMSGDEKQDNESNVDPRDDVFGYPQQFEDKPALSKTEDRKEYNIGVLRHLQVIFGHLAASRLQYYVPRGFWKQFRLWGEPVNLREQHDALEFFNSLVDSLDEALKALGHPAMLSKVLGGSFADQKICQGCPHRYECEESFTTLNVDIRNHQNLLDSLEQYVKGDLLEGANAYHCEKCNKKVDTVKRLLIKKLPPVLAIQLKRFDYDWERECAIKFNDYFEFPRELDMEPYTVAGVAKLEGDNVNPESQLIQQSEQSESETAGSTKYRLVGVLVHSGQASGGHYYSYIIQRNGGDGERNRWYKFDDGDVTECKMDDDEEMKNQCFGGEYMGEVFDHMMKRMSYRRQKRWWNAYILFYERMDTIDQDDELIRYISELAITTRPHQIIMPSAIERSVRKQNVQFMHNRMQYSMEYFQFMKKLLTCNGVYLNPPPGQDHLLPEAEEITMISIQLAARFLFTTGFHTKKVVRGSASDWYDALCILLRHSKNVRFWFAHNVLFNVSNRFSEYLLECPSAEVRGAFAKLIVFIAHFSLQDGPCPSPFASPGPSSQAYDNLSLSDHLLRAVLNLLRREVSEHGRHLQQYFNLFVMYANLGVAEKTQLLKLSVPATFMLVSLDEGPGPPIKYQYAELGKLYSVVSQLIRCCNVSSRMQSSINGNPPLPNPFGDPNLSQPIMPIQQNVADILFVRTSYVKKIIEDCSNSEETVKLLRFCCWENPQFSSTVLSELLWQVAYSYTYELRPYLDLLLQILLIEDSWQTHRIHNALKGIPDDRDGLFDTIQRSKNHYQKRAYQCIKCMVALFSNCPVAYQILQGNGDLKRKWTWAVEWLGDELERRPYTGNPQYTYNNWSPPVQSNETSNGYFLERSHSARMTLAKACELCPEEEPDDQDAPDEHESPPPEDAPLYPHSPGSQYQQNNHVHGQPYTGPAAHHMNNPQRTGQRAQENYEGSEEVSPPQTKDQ
Method: For each purification, fifty 25-cm dishes of confluent HEK-293 cell lines stably expressing wild-type USP-9X (provided by Dr. Dario Alessi, University of Dundee, Scotland) were employed. Cells were washed twice with ice-cold PBS and lysed in 1 ml of ice-cold lysis buffer. The combined lysates were centrifuged at 26000 g for 30 min at 4° C. and the supernatant incubated with 0.2 ml of rabbit IgG-agarose beads (Sigma) for 1 h at 4° C. The IgG-agarose was washed extensively with lysis buffer containing 0.15 M NaCl, then with several washes in buffer B prior to incubation with 0.250 ml of buffer B containing 0.1 mg of TEV protease (Invitrogen). After 3 h at 4° C.˜70-90% of the TAP-tagged protein had been cleaved from the IgG-agarose and the eluted protein was incubated with 0.1 ml of rabbit calmodulin-Sepharose (Roche) equilibrated in buffer C. After 1 h at 4° C., the calmodulin-Sepharose was washed with buffer C. To elute the protein, the calmodulin-Sepharose was then incubated with 0.1 ml of buffer D for 10 min at 4° C. The eluate was removed from the beads and the elution repeated two or three times. To remove the NaCl present in the buffer containing the eluate protein, the eluates were centrifuged at 1500 g for 1 min at 4° C. in protein desalting spin columns. […]

Usp9x [3] = assay: Low-throughput compound pull-down and Western blot; assay type: binding; settings: FIG. 13, Western blot
STAT1 [4] = assay: STAT1 phosphorylation; assay type: cell-based; settings: FIG. 8
Method: siRNAs (100 nM) were transfected into INS-1E cells (5,000 cells/well in a 384-well plate) using DharmaFECT reagent. Transfected cells were cultured for 72 hr, then collected for Western blot analysis and cell-based assays. For Western blotting, cells were lysed in RIPA buffer. Total protein was separated by 4-12% SDS-PAGE and transferred to a PVDF membrane. Blots were developed using the chemiluminescence detection system SuperSignal (Thermo Fisher Scientific) and light emission was captured using an Imaging Station 4000MM (Carestream).

STAT1 [5] = assay: GAS reporter assay (cytokine-induced STAT1 reporter gene activity); assay type: cell-based; settings: FIG. 7
Method: INS-1E cells were transfected with plasmids (GAS reporter assay kit) using DharmaFECT reagent according to the manufacturer's protocol (SABiosciences) in white optical 384-well plates (Corning Life Sciences). After overnight incubation, medium was removed and 50 μL RPMI containing the treated compound, 1% FBS and a combination of cytokines (10 ng/mL IL-1β, 50 ng/mL IFN-γ, 25 ng/mL TNF-α) was added to every well. After treatment with cytokines and compounds for 18 hr, luminescence was measure using Dual-Glo according to the manufacturer's protocol (Promega).

dissociated human islets = assay: Cytokine-induced caspase-3/7 activity in dissociated human islets; assay type: cell-based; settings: six-day cytokine treatment, co-incubation
From the text: Without being bound by any theory the following postulated to relate the activity of the compounds of Formula I in autoimmune diseases. Human beta-cell apoptosis involves a complex set of signaling cascades initiated by IL-1β, IFN-γ, and TNF-α. IL-1β and TNF-α induce NF-κB expression, while downstream activation of gene expression is thought to occur through nitric oxide (NO) signaling, which both increases the endoplasmic reticulum stress-response pathway and decreases beta-cell function; this pathway works together with IFN-γ-induced STAT-1 signaling to effect beta-cell death. These effects of cytokines are beta cell-specific, and small-molecule suppressors should have little to no effect on other cell types in the pancreas. Small molecules that increase beta-cell survival in the presence of cytokines could be of potential clinical benefit to early-stage type 1 diabetic patients. A number of studies have described small molecules with protective effects in the presence of cytokines; most of these were discovered because of their nonspecific antioxidant or anti-inflammatory effects. […] Because of the use of dissociated islets and a whole-well readout of caspase activity, it cannot be certain that only beta cells are undergoing apoptosis; however, based on previous results in the literature, beta cells may constitute the majority of the apoptotic effect.

INS-1E cells = assay: Caspase-3 activity assay (Caspase-Glo 3/7) in cytokine-treated INS-1E cells; assay type: cell-based, rat; settings: cytokines
Method: INS-1E cells were seeded at 5,000 cells per well in white optical 384-well plates and treated as described for highthroughput screening. After treatment with cytokines and compounds for 48 h, medium was removed and 20 μL Caspase-Glo 3/7 reagent was added. Luminescence was measured after 2 h of incubation using an EnVision plate reader.

Usp9x thermal shift (Usp9x [2]): suggests binding | cytokine-induced caspase-3/7 activity (induced by approximately 60%) (dissociated human islets): abolished | pEC50 (INS-1E cells; Rattus norvegicus, 48 h, Caspase-Glo 3/7): < 5.00
Structure (SMILES): C[C@@H]1CN([C@@H](C)CO)C(=O)c2cccc(NC(=O)Nc3cccc4ccccc34)c2O[C@H]1CN(C)S(=O)(=O)c1ccc2c(c1)OCCO2 [Compound 21A, N-(((2R,3R)-5-((S)-1-Hydroxypropan-2-yl)-3-methyl-10-(3-(naphthalen-1-yl)ureido)-6-oxo-3,4,5,6-tetrahydro-2H-benzo[b][1,5]oxazocin-2-yl)methyl)-N-methyl-2,3-dihydrobenzo-[b][1,4]dioxine-6-sulfonamide]
nuclear STAT1 translocation (STAT1 [1]): Inhibition of nuclear STAT1 translocation | protein isolated by compound pull-down (Usp9x [3]): Usp9x isolated | STAT1 phosphorylation (STAT1 [4]): Suppression of STAT1 phosphorylation | cytokine-induced STAT1 reporter gene activity (STAT1 [5]): inhibits cytokine-induced STAT1 reporter gene activity | caspase-3/7 activity in INS-1E cells (INS-1E cells): decreased caspase-3/7 activity
